Experimental data from paper PMC11329928, “Design, synthesis and structure-activity relationship (SAR) studies of an unusual class of non-cationic fatty amine-tripeptide conjugates as novel synthetic antimicrobial agents” (Frontiers in Pharmacology, 2024).

Experiments:
[1] = test system: Streptococcus pneumoniae R6; assay: Growth inhibition / lysis screening of planktonic cultures (OD550/600); type: cell-based; parameters: key: (+++) full inhibition; (++) partial inhibition; (+) growth retardation; -: (−) no effect; details: S. pneumoniae R6, 50 and 100 μM compound added at early logarithmic phase (T1), OD550/600 followed 10 h, 37°C
Procedure, shortened: (§1)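 Early exponential-phase cultures (OD550/600 c. a. 0.15–0.2) were treated with DICAMs at 50 and 100 μM final, diluted from DMSO stocks into medium, and incubated 10 h at 37°C. Turbidity (OD550/600) was read every 20 min against untreated controls to track growth inhibition and lysis.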

[2] = RP-HPLC retention time used to determine hydrophobicity; type: physicochemical; details: analytical RP-HPLC, C18 Sunfire column (4.6 mm × 150 mm, 3.5 μm); A = 0.05% TFA in water, B = acetonitrile; 10% to 100% B in 20 min then isocratic 100% B 10 min; 217 and 254 nm; used as measure of hydrophobicity
[3] = test system: S. pneumoniae D39; type: cell-based, Streptococcus pneumoniae
Text: First, the substitution of the fatty amino chain of 18 carbon atoms of the reference compound DICAM 2 by either an OMe group (methylated tripeptide DICAM 5) or an amine with 12 carbon atoms (DICAM 9) abolished the activity against all three pathogens. However, the activity remained intact when the chain of the fatty amine of prototypes DICAMs 1 and 4 was two carbon atoms shorter (DICAM 10 and DICAM 12, respectively), based on S. pneumoniae and S. pyogenes results. […] Third, Glu and Ala were tolerated as C-terminal residues of the lipotripeptides. […] In addition, deletion of the C-terminal Glu (DICAM 13) eradicated the activity against S. pneumoniae and S. aureus. However, a delay and small inhibition of S. pyogenes ^T growth was still observed. Fourth, Glu (DICAMs 19 and 20) and Orn (DICAMs 21 and 22) were tolerated as N-terminal residues, with the impact of these modifications being pathogen-dependent. […] SAR studies continued by measuring the dose dependence of DICAM’s activity at T1 with all the compounds found to be active against S. pyogenes or S. aureus in the initial screening, and all but one compound in the case of S. pneumoniae. The OD values of bacterial cultures were monitored after DICAM addition, and the decrease in the number of viable bacteria was measured relative to controls (Figures 4–6; Supplementary Figure S1). As antibacterial efficacy may decline with the bacterium dose in the inoculum ([Belley et al., 2009]; [Udekwu et al., 2009]; [Luca et al., 2013]), the assays were performed using the bacterial concentrations necessary for the fluorescence experiments in Section 2.3 (10^7–10^8 CFU/mL). At these high bacterial densities, MICs were determined as the DICAM concentration at which bacteria neither grow nor are killed (the stationary concentration (SC)), following [Udekwu et al., 2009]. By fitting the logarithmic plot of cell viability decrease vs. the DICAM dose to a Hill function (see Section 5.2.3.1) we were able to determine the maximum variation in viability (Δlogmax = ∆log f - ∆log 0, where ∆log f and ∆log 0 are the upper and lower limits of Δlog) in the assay conditions, the SC concentration (Δlog = 0), the dose required for half-variation in Δlogmax (K 1/2), and the cooperativity of the antimicrobial effect (N H).
Susceptibility to DICAMs was first tested by growth-inhibition assays at 50 and 100 μM of compound. Briefly, working solutions at 5 mM or 10 mM DICAM in pure DMSO were prepared from DICAM stocks (40 mM in pure DMSO) and diluted with fresh culture medium to 5× the desired final concentration. Aliquots (50 µL) of these solutions were added to 200 µL of bacterium cultures grown to early exponential phase (OD550/600 c. a. 0.15–0.2 in sterile 96-well plates (Cultek, Spain). Incubation continued for 10 h at 37°C and turbidity (OD550/600) values were measured every 20 min to monitor growth and lysis, using a VersaMax microplate reader (Molecular Devices; United Kingdom). Next, the activity dependence on DICAM’s dose was examined by measuring the turbidity of treated and untreated cultures as a function of time. Also, the decay of bacterial viability (CFU/mL) at selected times of treatment was assessed by colony counting on LB-agar or TSA plates after overnight incubation at 37°C. By default, 10 μL of 10-fold serially diluted samples were plated, which set the lower detection limit at 10^2 CFU/mL (10^1 CFU/mL when 100 μL of the undiluted sample was seeded).
As antibacterial efficacy may decline with the bacterium dose in the inoculum ([Belley et al., 2009]; [Udekwu et al., 2009]; [Luca et al., 2013]), activity assays were performed using the bacterial concentrations required for the fluorescence experiments in Section 2.3 (10^7–10^8 CFU/mL). At such bacterial densities, MICs were determined as the DICAM concentration at which bacteria neither grow nor are killed under assay conditions (the stationary concentration (SC)), as indicated in Section 2.2. […]

[4] = test system: Streptococcus pyogenes T; assay: Growth inhibition screening of planktonic cultures (OD550/600); type: cell-based; parameters: key: (+++) full inhibition; (++) partial inhibition; (+) growth retardation; -: (−) no effect; details: S. pyogenes T, 50 and 100 μM compound added at T1, OD550/600 followed 10 h, 37°C
Procedure, shortened: as §1

Ala - Pro -Glu-NH-C18H37 · HCl [DICAM 23]
Growth halt or lysis (50/100 μM), Spn [1]: +++ | Retention time [2]: 19.31 min | SC (stationary concentration, Δlog = 0), S. pneumoniae D39 ([3]; 1 h treatment, C + Y medium, 37°C, added at T1, 10^7–10^8 CFU/mL, CFU vs untreated controls, Hill fit): 2.9 ± 0.8 µM | EC50 ([3]; 1 h treatment, C + Y, 37°C, Hill fit, read-out: K 1/2 (concentration yielding half-variation in Δlogmax), S. pneumoniae D39 (converted)): 8.6 ± 0.3 µM | Reduction of the number of viable cells at saturating doses ([3]; S. pneumoniae D39, within 60 min): ≥ 4.6 log-units | Reduction of the number of viable cells at 3 × SC, S. pneumoniae ([3]; after 1-h incubation at 3 × SC values): 99.2%–99.8 | Δlogmax, S. pneumoniae D39 ([3]; maximum variation in viability, 1 h treatment, C + Y, 37°C, Hill fit): 5.4 ± 0.2 logarithmic units | Growth halt or lysis (50/100 μM), Spy T [4]: +++
